Earlier results on two compounds are cited in patent US20050096391A1 (priority 2003, published 2005).

The conditions of data set [1]: pH of 7.0.
For data set [2] the following is noted: oral.
Data set [3] concerns low-density lipoprotein (LDL)-cholesterol. As to conditions: compared with atorvastatin, simvastatin, pravastatin.

With `CC(C)c1nc(N(C)S(C)(=O)=O)nc(-c2ccc(F)cc2)c1/C=C/[C@@H](O)C[C@@H](O)CC(=O)[O-].CC(C)c1nc(N(C)S(C)(=O)=O)nc(-c2ccc(F)cc2)c1/C=C/[C@@H](O)C[C@@H](O)CC(=O)[O-].[Ca+2]` [Rosuvastatin calcium], the solubility in ethanol result (ethanol) is recorded as “slightly soluble”. The solubility in methanol result (methanol) is reported as “sparingly soluble”. In addition, the solubility in water result (water) was “sparingly soluble”.

Consider `CC(C)c1nc(N(C)S(C)(=O)=O)nc(-c2ccc(F)cc2)c1/C=C/[C@@H](O)C[C@@H](O)CC(=O)O` [Rosuvastatin, (E)-7-[4-(4-fluorophenyl)-6 isopropyl-2-[methyl (methyl-sulfonyl)amino]pyrimidin-5-yl](3R,5S)-3,5-dihydroxyhept-6-enoic acid], for which the “partition coefficient (octanol/water)” value in data set [1] is 0.13. For the same compound, the bioavailability entry in data set [2] is listed as “approximately 20%”. Further, in data set [3], the “reductions in low-density lipoprotein (LDL)-cholesterol” value is “greater reductions in low-density lipoprotein (LDL)-cholesterol than atorvastatin, simvastatin, and pravastatin”.
